Test results from paper PMC11427369 (Frontiers in Pharmacology, 2024).

What was measured:
PA63 = target: T1, PA63 (Bacillus anthracis, UniProt P13423); assay type: biochemical
T1 construct: gene pagA

C2IIa = C2IIa (Clostridium botulinum, UniProt O86171); assay type: biochemical
Chain of C2IIa (O86171 182-721 limits assumed): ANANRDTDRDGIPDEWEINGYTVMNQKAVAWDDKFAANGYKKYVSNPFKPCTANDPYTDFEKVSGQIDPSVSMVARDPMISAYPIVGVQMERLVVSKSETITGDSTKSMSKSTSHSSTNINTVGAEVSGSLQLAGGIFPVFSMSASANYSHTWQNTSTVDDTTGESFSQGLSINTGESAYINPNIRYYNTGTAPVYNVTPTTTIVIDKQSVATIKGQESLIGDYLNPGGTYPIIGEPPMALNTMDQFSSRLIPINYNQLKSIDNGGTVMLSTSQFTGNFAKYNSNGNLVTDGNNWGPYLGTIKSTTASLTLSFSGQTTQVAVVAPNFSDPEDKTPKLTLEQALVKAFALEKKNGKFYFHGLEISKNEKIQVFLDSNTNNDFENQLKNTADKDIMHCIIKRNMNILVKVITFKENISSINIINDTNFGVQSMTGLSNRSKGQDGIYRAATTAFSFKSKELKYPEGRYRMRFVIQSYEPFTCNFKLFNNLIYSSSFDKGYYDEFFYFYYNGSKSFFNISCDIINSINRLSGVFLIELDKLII

T1 sequence (P13423 197-764 limits assumed): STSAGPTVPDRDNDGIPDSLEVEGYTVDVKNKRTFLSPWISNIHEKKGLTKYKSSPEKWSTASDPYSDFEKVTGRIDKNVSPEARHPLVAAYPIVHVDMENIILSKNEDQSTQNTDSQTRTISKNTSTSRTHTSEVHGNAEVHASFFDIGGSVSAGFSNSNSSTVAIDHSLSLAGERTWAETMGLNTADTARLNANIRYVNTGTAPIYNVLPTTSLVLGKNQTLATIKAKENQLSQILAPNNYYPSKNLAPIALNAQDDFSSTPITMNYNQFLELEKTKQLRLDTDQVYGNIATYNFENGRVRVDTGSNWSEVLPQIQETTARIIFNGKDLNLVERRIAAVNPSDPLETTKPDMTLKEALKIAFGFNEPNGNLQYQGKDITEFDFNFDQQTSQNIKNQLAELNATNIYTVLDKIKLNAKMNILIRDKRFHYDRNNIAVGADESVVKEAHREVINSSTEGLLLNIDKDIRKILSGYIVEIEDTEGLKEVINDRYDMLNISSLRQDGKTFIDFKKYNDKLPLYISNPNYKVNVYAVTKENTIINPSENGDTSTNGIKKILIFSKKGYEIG

Q: `CCN(CC)C(=S)SSC(=S)N(CC)CC` [disulfiram] was tested. Which “pore conductance block, planar lipid bilayer” value (PA63) did it give?
A: addition of DSF immediately blocked any current flow, leading to zero level of conductance

Q: What about the “pore conductance block, planar lipid bilayer” value (C2IIa) of the same compound?
A: addition of DSF led to an immediate block of any current flowing
